Assay results taken from patent publication US9359308B2, “Pyrazine kinase inhibitors” (Portola Pharmaceuticals, Inc., priority 2011, dated 2016).

Target: T1, full length active recombinant SYK enzyme (Homo sapiens, UniProt P43405)
T1 construct: full length active recombinant SYK enzyme (Millipore, Calif.); purchased Millipore
Assay: Inhibition of Syk tyrosine phosphorylation activity (LANCE TR-FRET kinase assay)
Assay type: biochemical
Conditions: activity in the Syk assays, class symbols
Summary of the method: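 1 nM full-length active recombinant SYK phosphorylated 550 nM biotin-DEEDYESP-OH with 100 μM ATP in 50 mM Tris pH 7.5, 5 mM MgCl2, 1 mM DTT and 3% DMSO for 1 h at room temperature. After EDTA quench, Eu-anti-phosphotyrosine/SA-APC TR-FRET was read after 1 h. IC50s came from non-linear regression.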

| SMILES | IC50 |
| --- | --- |
| COC[C@@H](Nc1cnc(C(N)=O)c(Nc2cc(C)ns2)n1)C(N)=O [Example 402, (R)-5-(1-amino-3-methoxy-1-oxopropan-2-ylamino)-3-(3-methylisothiazol-5-ylamino)pyrazine-2-carboxamide] | 10 to 100 nM |
| COc1ccc(Nc2nc(N[C@@H]3CCCC[C@@H]3N)cnc2C(N)=O)cc1C(=O)N(C)C [Example 286, 5-((1R,2S)-2-aminocyclohexylamino)-3-(3-(dimethylcarbamoyl)-4-methoxyphenylamino)pyrazine-2-carboxamide] | 100 to 1000 nM |
| CCC(=O)N1CCC(c2ccc(Nc3nc(N[C@@H]4CCCC[C@@H]4N)cnc3C(N)=O)cc2)CC1 [Example 438, 5-(((1R,2S)-2-aminocyclohexyl)amino)-3-((4-(1-propionylpiperidin-4-yl)phenyl)amino)pyrazine-2-carboxamide] | 1 to 10 nM |
| CC(C)C[C@@H](Nc1cnc(C(N)=O)c(Nc2ccc(C(=O)N3CCC3)nc2)n1)C(N)=O [Example 282, (R)-5-(1-amino-4-methyl-1-oxopentan-2-ylamino)-3-(6-(azetidine-1-carbonyl)pyridin-3-ylamino)pyrazine-2-carboxamide] | 1 to 10 nM |
| Cc1cc(Nc2nc(N[C@H](CC3CCCCC3)C(N)=O)cnc2C(N)=O)sn1 [Example 390, (R)-5-(1-amino-3-cyclohexyl-1-oxopropan-2-ylamino)-3-(3-methylisothiazol-5-ylamino)pyrazine-2-carboxamide] | 10 to 100 nM |
| Cc1cc(Nc2nc(N[C@H]3CN[C@@H](CO)C3)cnc2C(N)=O)sn1 [Example 139, 5-(((3R,5R)-5-(hydroxymethyl)pyrrolidin-3-yl)amino)-3-((3-methylisothiazol-5-yl)amino)pyrazine-2-carboxamide] | 10 to 100 nM |
| NC(=O)c1ncc(N[C@@H]2CCCC[C@@H]2N)nc1Nc1cccc(C(F)(F)F)c1 [Example 199, 5-((1R,2S)-2-aminocyclohexylamino)-3-(3-(trifluoromethyl)phenylamino)pyrazine-2-carboxamide] | 1 to 10 nM |
| CC[C@@H](Nc1cnc(C(N)=O)c(Nc2ccc(-c3nnco3)cc2)n1)C(N)=O [Example 27, (R)-3-(4-(1,3,4-oxadiazol-2-yl)phenylamino)-5-(1-amino-1-oxobutan-2-ylamino)pyrazine-2-carboxamide] | 10 to 100 nM |
| CC[C@@H](Nc1cnc(C(N)=O)c(Nc2cc(-c3ccccc3)ns2)n1)C(N)=O [Example 403, (R)-5-(1-amino-1-oxobutan-2-ylamino)-3-(3-phenylisothiazol-5-ylamino)pyrazine-2-carboxamide] | 10 to 100 nM |
| CS(=O)(=O)c1ccc(Nc2nc(N[C@H](CC3CC3)C(N)=O)cnc2C(N)=O)cc1 [Example 166, (R)-5-(1-amino-3-cyclopropyl-1-oxopropan-2-ylamino)-3-(4-(methylsulfonyl)phenylamino)pyrazine-2-carboxamide] | 1 to 10 nM |
| CC[C@@H](Nc1cnc(C(N)=O)c(Nc2cc(CO)ns2)n1)C(N)=O [Example 251, (R)-5-(1-amino-1-oxobutan-2-ylamino)-3-(3-(hydroxymethyl)isothiazol-5-ylamino)pyrazine-2-carboxamide] | 10 to 100 nM |
| CC[C@@H](Nc1cnc(C(N)=O)c(Nc2ccc(OC)c(OC)c2)n1)C(N)=O [Example 151, (R)-5-(1-amino-1-oxobutan-2-ylamino)-3-(3,4-dimethoxyphenylamino)pyrazine-2-carboxamide] | 10 to 100 nM |
| CC(C)(C)c1cc(Nc2nc(N[C@H](CC3CC3)C(N)=O)cnc2C(N)=O)sn1 [Example 229, (R)-5-(1-amino-3-cyclopropyl-1-oxopropan-2-ylamino)-3-(3-tert-butylisothiazol-5-ylamino)pyrazine-2-carboxamide] | 10 to 100 nM |
| NC(=O)c1ncc(N[C@@H]2CCCC[C@@H]2N)nc1Nc1cnn(CC2CC2)c1 [Example 219, 5-((1R,2S)-2-aminocyclohexylamino)-3-(1-(cyclopropylmethyl)-1H-pyrazol-4-ylamino)pyrazine-2-carboxamide] | 10 to 100 nM |
| CC(C)C[C@@H](Nc1cnc(C(N)=O)c(Nc2ccc3c(c2)CCC(=O)N3C)n1)C(N)=O [Example 89, (R)-5-(1-amino-4-methyl-1-oxopentan-2-ylamino)-3-(1-methyl-2-oxo-1,2,3,4-tetrahydroquinolin-6-ylamino)pyrazine-2-carboxamide] | 1 to 10 nM |
| NC(=O)c1ncc(N[C@@H]2CCCC[C@@H]2N)nc1Nc1ccc(-c2ncco2)cc1 [Example 445, 5-(((1R,2S)-2-aminocyclohexyl)amino)-3-((4-(oxazol-2-yl)phenyl)amino)pyrazine-2-carboxamide] | 1 to 10 nM |
| NC(=O)c1ncc(N[C@@H]2CCCC[C@@H]2N)nc1Nc1cc(-n2nccn2)cc(-n2nccn2)c1 [Example 424, 5-(((1R,2S)-2-aminocyclohexyl)amino)-3-((3,5-di(2H-1,2,3-triazol-2-yl)phenyl)amino)pyrazine-2-carboxamide] | 1 to 10 nM |
| NC(=O)c1ncc(N[C@@H]2CCCC(F)(F)[C@@H]2N)nc1Nc1ccc(C2CC2)nc1 [Example 345, 5-((1R,2R)-2-amino-3,3-difluorocyclohexylamino)-3-(6-cyclopropylpyridin-3-ylamino)pyrazine-2-carboxamide] | 10 to 100 nM |

| SMILES | IC50 |
| --- | --- |
| CC[C@@H](Nc1cnc(C(N)=O)c(Nc2cnc(N(C)C)c(C)c2)n1)C(N)=O [Example 314, (R)-5-(1-amino-1-oxobutan-2-ylamino)-3-(6-(dimethylamino)-5-methylpyridin-3-ylamino)pyrazine-2-carboxamide] | 100 to 1000 nM |
| CC(C)[C@@H](Nc1cnc(C(N)=O)c(Nc2cnc3ccccc3c2)n1)C(N)=O [Example 66, (R)-5-(1-amino-3-methyl-1-oxobutan-2-ylamino)-3-(quinolin-3-ylamino)pyrazine-2-carboxamide] | 1 to 10 nM |
| Cc1cccc(Nc2nc(N[C@H]3CC[C@@H](N)CC3)cnc2C(N)=O)c1 [Example 183, 5-((1s,4s)-4-aminocyclohexylamino)-3-(m-tolylamino)pyrazine-2-carboxamide] | 10 to 100 nM |
| N#Cc1ccc(Nc2nc(N[C@@H]3CCCC[C@@H]3N)cnc2C(N)=O)cn1 [Example 338, 5-((1R,2S)-2-aminocyclohexylamino)-3-(6-cyanopyridin-3-ylamino)pyrazine-2-carboxamide] | 10 to 100 nM |
| NC(=O)c1ncc(N[C@@H]2CCCC[C@@H]2N)nc1Nc1cccc(C(=O)N2CCCC2)c1 [Example 287, 5-((1R,2S)-2-aminocyclohexylamino)-3-(3-(pyrrolidine-1-carbonyl)phenylamino)pyrazine-2-carboxamide] | 10 to 100 nM |
| CC(C)(C)C[C@@H](Nc1cnc(C(N)=O)c(Nc2cncc(F)c2)n1)C(N)=O [Example 247, (R)-5-(1-amino-4,4-dimethyl-1-oxopentan-2-ylamino)-3-(5-fluoropyridin-3-ylamino)pyrazine-2-carboxamide] | 1 to 10 nM |
| CC(C)(C)[C@@H](Nc1cnc(C(N)=O)c(Nc2ccc3cccnc3c2)n1)C(N)=O [Example 235, (R)-5-(1-amino-3,3-dimethyl-1-oxobutan-2-ylamino)-3-(quinolin-7-ylamino)pyrazine-2-carboxamide] | 10 to 100 nM |
| C[C@@H](Nc1cnc(C(N)=O)c(Nc2ccc3ncccc3c2)n1)C(N)=O [Example 4, (R)-5-(1-amino-1-oxopropan-2-ylamino)-3-(quinolin-6-ylamino)pyrazine-2-carboxamide] | 1 to 10 nM |
| CN(C)c1nc2ccc(Nc3nc(N[C@@H]4CCCC[C@@H]4N)cnc3C(N)=O)cc2o1 [Example 325, 5-((1R,2S)-2-aminocyclohexylamino)-3-(2-(dimethylamino)benzo[d]oxazol-6-ylamino)pyrazine-2-carboxamide] | 1 to 10 nM |
| CN1C(=O)Cc2cc(Nc3nc(N[C@@H]4CCCC[C@@H]4N)cnc3C(N)=O)ccc21 [Example 324, 5-((1R,2S)-2-aminocyclohexylamino)-3-(1-methyl-2-oxoindolin-5-ylamino)pyrazine-2-carboxamide] | 1 to 10 nM |
| NC(=O)c1ncc(NC2CCC(N)CC2)nc1Nc1cccc(-n2nccn2)c1 (centres unmarked) [Example 188, 3-(3-(2H-1,2,3-triazol-2-yl)phenylamino)-5-((1r,4r)-4-aminocyclohexylamino)pyrazine-2-carboxamide] | 1 to 10 nM |
| NC(=O)c1ncc(N[C@@H]2CCCC[C@@H]2N)nc1Nc1ccc(C2CC2)nc1 [Example 351, 5-((1R,2S)-2-aminocyclohexylamino)-3-(6-cyclopropylpyridin-3-ylamino)pyrazine-2-carboxamide] | 1 to 10 nM |
| NC(=O)c1ncc(N[C@@H]2CCCC[C@@H]2N)nc1Nc1ccc2cccnc2c1 [Example 435, 5-(((1R,2S)-2-aminocyclohexyl)amino)-3-(quinolin-7-ylamino)pyrazine-2-carboxamide] | 1 to 10 nM |
| CC(C)C[C@@H](Nc1cnc(C(N)=O)c(Nc2cnc3cccnc3c2)n1)C(N)=O [Example 407, (R)-3-(1,5-naphthyridin-3-ylamino)-5-(1-amino-4-methyl-1-oxopentan-2-ylamino)pyrazine-2-carboxamide] | 1 to 10 nM |
| Cc1ccc(Nc2nc(N[C@H](CC3CC3)C(N)=O)cnc2C(N)=O)cc1 [Example 174, (R)-5-(1-amino-3-cyclopropyl-1-oxopropan-2-ylamino)-3-(p-tolylamino)pyrazine-2-carboxamide] | 10 to 100 nM |
| COc1cncc(Nc2nc(N[C@@H]3CCCC(F)(F)[C@@H]3N)cnc2C(N)=O)c1 [Example 333, 5-((1R,2R)-2-amino-3,3-difluorocyclohexylamino)-3-(5-methoxypyridin-3-ylamino)pyrazine-2-carboxamide] | 100 to 1000 nM |
| CC[C@@H](Nc1cnc(C(N)=O)c(Nc2cnc3ccccc3c2)n1)C(N)=O [Example 73, (R)-5-(1-amino-1-oxobutan-2-ylamino)-3-(quinolin-3-ylamino)pyrazine-2-carboxamide] | 1 to 10 nM |
